Data set [1] deals with T1, K18PL tau (Homo sapiens, UniProt P10636, P618L).
T1 construct: (K18PL; amino acids 244-369); made in house
Briefly: Heparin-induced K18PL tau fibrillization assay monitored by ThT fluorescence. The note with it: for pIC50 / Emax: Table 5; for pIC50: read-out: K18PL (ThT) IC50 value; for Emax: read-out: K18PL (ThT) maximal percent inhibition achieved in the assay. The data set is classed as biochemical. The essentials:
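K18PL (30 μM stock, with 0.24 μM Alexa Red-labeled K18PL) plus 40 μM heparin and compound, fibrillized 6 h at 37 °C. Fibrils read by ThT (12.5 μM final, in 100 mM glycine pH 8.5, 1 h RT), ex 450/em 510 nm. Percent inhibition scaled between DMSO wells and non-fibrillizing K18 KD control wells.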

The target in data set [2] is T1, K18PL tau. Nature of the data set: K18PL tau centrifugation (sedimentation) assay, SDS-PAGE densitometry. The data set is classed as biochemical. The note with it: for Emax: SDS-PAGE of soluble and insoluble fractions after centrifugation, read-out: K18PL Sed. Assay, maximal percent inhibition of K18PL fibrillization. The procedure, abridged:
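Heparin-induced fibrillization of K18PL tau in sodium acetate buffer with test compound; mixtures were centrifuged and soluble versus insoluble K18PL quantified by SDS-PAGE densitometry. A repeat run centrifuged DMSO- and compound-treated mixtures for 30 min at time zero to remove pelletable material before incubation.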

The target in a further data set is T2, full-length tau (tau40) (Homo sapiens, UniProt P10636).
T2 construct: Full length tau (Tau40; amino acids 1-441); made in house
T2 sequence (P10636 1-441 isoform P10636-8): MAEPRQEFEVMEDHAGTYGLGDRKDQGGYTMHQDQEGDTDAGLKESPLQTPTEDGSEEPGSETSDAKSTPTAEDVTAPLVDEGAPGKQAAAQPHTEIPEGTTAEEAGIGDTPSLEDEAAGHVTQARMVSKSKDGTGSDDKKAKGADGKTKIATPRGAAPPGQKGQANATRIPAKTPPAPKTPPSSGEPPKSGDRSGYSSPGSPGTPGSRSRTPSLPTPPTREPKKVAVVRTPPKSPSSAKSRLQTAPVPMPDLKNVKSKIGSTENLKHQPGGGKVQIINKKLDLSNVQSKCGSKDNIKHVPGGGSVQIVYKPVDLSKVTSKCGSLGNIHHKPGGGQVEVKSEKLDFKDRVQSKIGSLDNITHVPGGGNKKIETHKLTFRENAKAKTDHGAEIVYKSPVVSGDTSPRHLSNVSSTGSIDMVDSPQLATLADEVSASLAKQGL
Briefly: Tau40 fibrillization sedimentation assay. The data set is classed as biochemical. The note with it: SDS-PAGE of soluble and insoluble fractions after centrifugation; for Emax: read-out: Tau40 Sed. Assay, maximal percent inhibition of tau40 fibrillization. The protocol: The determination of compound-induced effects on the amount of tau that remains soluble upon centrifugation, and EM visualization of tau species following incubation with test compounds, were as previously described (Crowe, A., Ballatore, C., Hyde, E., Trojanowski, J. Q., and Lee, V. M. Y. (2007) Biochemical and Biophysical Research Communications 358, 1-6). […]

Data set [3] is described as follows: Turbidimetric solubility in fibrillization buffer. The data set is classed as physicochemical. The note with it: 100 mM NaOAc pH 7.0 fibrillization buffer, 1% DMSO. The protocol: Compounds were serially diluted in DMSO to achieve a 2.5 fold dilution series from 20 mM down 8 points to […] on a 384-well master plate (Costar 3672). Aliquots (2 μL) were transferred to a clear 96-well assay plate (Fisher 12-565-501) containing 198 μL fibrillization buffer (100 mM NaOAc pH 7.0) for a 100-fold dilution (200 μM down to 0.3 μM). The plate was incubated with agitation for 2.5 h, and the absorbance at 550, 600, 650 and 700 nm was measured on a Spectramax M5 spectrophotometer. DMSO (1%) in fibrillization buffer served as a control that was subtracted from each data point. The absorbances were averaged and the concentration at which the average absorbance rose above 0.03 AU was an indication of insoluble compound, with solubility limits reported as the previous concentration in the dilution series.

pIC50: −log10 of the molar value. Like-named read-outs stand apart in the source and are kept apart here.

T1 sequence (P10636 561-686 P618L): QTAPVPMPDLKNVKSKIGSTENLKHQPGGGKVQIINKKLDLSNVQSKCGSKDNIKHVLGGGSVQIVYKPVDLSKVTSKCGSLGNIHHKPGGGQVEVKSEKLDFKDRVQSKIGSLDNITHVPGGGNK

In the case of `Nc1scc2c(C(=O)NC3CC3)nn(-c3ccc(Cl)cc3)c(=O)c12` [CNDR-51362, 5-Amino-3-(4-chlorophenyl)-N-cyclopropyl-4-oxo-3,4-dihydrothieno[3,4-d]pyridazine-1-carboxamide], at K18PL tau [1], the pIC50 was 5.34 and the Emax worked out at 87%. Further, the Emax at K18PL tau [2] is 69%. At full-length tau (tau40), the “Tau40 Sed. Assay, maximal percent inhibition of tau40 fibrillization” value amounted to 58% and the Emax lay in the range of 50 to 60%. The “Water Solubility” value in data set [3] is 32 µM.
Consider `CCOC(=O)c1nn(-c2ccc(Cl)cc2)c(=O)c2c(N)scc12` [Compound 17, Ethyl 5-amino-3-(4-chlorophenyl)-4-oxo-3,4-dihydrothieno[3,4-d]pyridazine-1-carboxylate], for which the inhibition at 80 µM at K18PL tau [1] (Table 3, highest tested concentration (80 μM), read-out: Tau ThT Assay % Inhib.) came out at 84%. Also, the half-inhibitory concentration (IC50) on K18PL tau [1] (Table 3, logarithm of IC50, K18PL tau ThT fluorescence inhibition, NC = not calculated due to insufficient activity, read-out: Tau ThT Assay Log IC50 (converted)) is 3.98 µM. At K18PL tau [1], the negative-log IC50 (pIC50) was 5.51 and the Emax came to 71%. Also, the Emax on K18PL tau [2] was determined as 70%. Also, the “Tau Cent. Assay % Soluble” value on K18PL tau [2] (Table 3, K18PL tau centrifugation assay) is reported as 62%. Besides, at full-length tau (tau40), the “Tau40 Sed. Assay, maximal percent inhibition of tau40 fibrillization” value came to 48% and the Emax lay in the range of 50 to 60%. Moreover, in data set [3], the “Water Solubility” value was 13 µM.

The record behind these values is US20130029983A1, “AMINOTHIENOPYRIDAZINE INHIBITORS OF TAU ASSEMBLY” (priority 2009, published 2013).
